Patent US11733246B2, “Compositions, imaging, and therapeutic methods targeting folate receptor 1 (FOLR1)” (Indi Molecular, Inc., priority 2020, dated 2023)
Where two headings read alike, the source gives them in different places. Numbered stars: 1 amine (or outer) side, 2 acyl side, 3 side chain; on linkers, the order of the positions; unused ones are H or OH. Bridge positions count the residues as written; N and C are the ends. Square brackets hold non-standard residues; d marks the D form. Triazole bridges read from a SMILES are 1,4-linked. Side chains are listed from the residue outwards. Peptide text beside a SMILES is read from it. * marks the point of attachment. DOTA = O=C(O)CN1CCN(CC(=O)O)CCN(CC(=O)*)CCN(CC(=O)O)CC1; Pteroyl = Nc1nc2ncc(CNc3ccc(C(=O)*)cc3)nc2c(=O)[nH]1; Biotin = O=C1N[C@H]2[C@H](CS[C@H]2CCCCC(=O)*)N1; PEG10 = NCCOCCOCCOCCOCCOCCOCCOCCOCCOCCOCCC(=O)O; Butanoyl(4-(4-MePh)) = Cc1ccc(CCCC(=O)*)cc1; Lys(N3) = [N-]=[N+]=NCCCC[C@H](N)C(=O)O; γGlu = O=C(O)[C@H](CCC(=O)[*:2])N[*:1]; AEEEA = NCCOCCOCCOCC(=O)O; Pra = C#CC[C@H](N)C(=O)O

Target: T1, FOLR1 (Homo sapiens, UniProt P15328)
T1 construct: His; purchased SinoBiological 11241-H08H
Test: ELISA assay of FOLR1 binding
Description: FIG. 5 is a diagram of ELISA assay of FOLR1 binding of heterobiligands.
Nonclinical studies were first conducted with Folate-hshta-PEG10-PEG10-K(Biotin), where Folate-hshta is the targeting heterobiligand, PEG10 is a deca(ethylene glycol) linker, and K(Biotin) is the detection label.

[1] = albumin binder / DOTA tagged biotin-labeled heterobiligands, read-out: EC50

T1 sequence (P15328 25-234): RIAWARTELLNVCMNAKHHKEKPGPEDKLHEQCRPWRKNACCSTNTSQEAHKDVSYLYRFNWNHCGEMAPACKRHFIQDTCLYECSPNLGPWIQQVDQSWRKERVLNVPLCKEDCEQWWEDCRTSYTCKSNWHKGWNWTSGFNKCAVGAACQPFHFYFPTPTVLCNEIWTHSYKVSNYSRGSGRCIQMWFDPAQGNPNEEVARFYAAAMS

Structure (SMILES) | EC50 [1] | EC50 (EC50, deryt heterobiligands, ELISA)
C[C@H](O)[C@H]1NC(=O)[C@@H](Cc2c[nH]cn2)NC(=O)[C@@H](CO)NC(=O)[C@@H](Cc2c[nH]cn2)NC(=O)[C@@H](NC(=O)CC[C@H](NC(=O)c2ccc(NCc3cnc4nc(N)[nH]c(=O)c4n3)cc2)C(=O)O)Cc2cn(nn2)CCCC[C@@H](C(=O)NCCOCCOCCOCC(=O)N[C@@H](CCCCNC(=O)CN2CCN(CC(=O)O)CCN(CC(=O)O)CCN(CC(=O)O)CC2)C(=O)NCCOCCOCCOCCOCCOCCOCCOCCOCCOCCOCCC(=O)NCCOCCOCCOCCOCCOCCOCCOCCOCCOCCOCCC(=O)N[C@@H](CCCCNC(=O)CCCC[C@@H]2SC[C@@H]3NC(=O)N[C@@H]32)C(N)=O)NC(=O)[C@@H](C)NC1=O [Folate-hshta-DOTA] ({Pteroyl-γGlu}-[Pra][dH][dS][dH][dT][dA][Lys(N3)][AEEEA]K(DOTA)[PEG10][PEG10]K(Biotin)-NH2; triazole 1-7) | 0.098 nM | 
C[C@H](O)[C@H]1NC(=O)[C@@H](Cc2ccc(O)cc2)NC(=O)[C@@H](CCCNC(=N)N)NC(=O)[C@@H](CCC(=O)O)NC(=O)[C@@H](CC(=O)O)NC(=O)[C@@H](NC(=O)[C@H](CCCCNC(=O)COCCOCCOCCNC(=O)CC[C@H](NC(=O)c2ccc(NCc3cnc4nc(N)[nH]c(=O)c4n3)cc2)C(=O)O)NC(=O)CCOCCOCCOCCOCCOCCOCCOCCOCCOCCOCCNC(=O)CCOCCOCCOCCOCCOCCOCCOCCOCCOCCOCCNC(=O)CCCC[C@@H]2SC[C@@H]3NC(=O)N[C@@H]32)Cc2cn(nn2)CCCC[C@@H](C(N)=O)NC1=O [Lys (PEG3 -Folate)-deryt] ({Biotin-PEG10-PEG10}-K([AEEEA-γGlu-Pteroyl])[Pra][dD][dE][dR][dY][dT][Lys(N3)]-NH2; triazole 2-8) |  | 0.16 nM
Cc1ccc(CCCC(=O)NCCCC[C@H](NC(=O)COCCOCCOCCNC(=O)[C@@H]2CCCCn3cc(nn3)C[C@H](NC(=O)CC[C@H](NC(=O)c3ccc(NCc4cnc5nc(N)[nH]c(=O)c5n4)cc3)C(=O)O)C(=O)N[C@H](Cc3c[nH]cn3)C(=O)N[C@H](CO)C(=O)N[C@H](Cc3c[nH]cn3)C(=O)N[C@H]([C@H](C)O)C(=O)N[C@H](C)C(=O)N2)C(=O)NCCOCCOCCOCCOCCOCCOCCOCCOCCOCCOCCC(=O)NCCOCCOCCOCCOCCOCCOCCOCCOCCOCCOCCC(=O)N[C@@H](CCCCNC(=O)CCCC[C@@H]2SC[C@@H]3NC(=O)N[C@@H]32)C(N)=O)cc1 [Folate-hshta-MPBA] ({Pteroyl-γGlu}-[Pra][dH][dS][dH][dT][dA][Lys(N3)][AEEEA]K(Butanoyl(4-(4-MePh)))[PEG10][PEG10]K(Biotin)-NH2; triazole 1-7) | 0.11 nM | 
